Active and inactive are the calls of the source.
Key:
cells [1] = type: functional, cell-based
cells [2] = type: functional, cell-based; remark: listed apart in the source
Cytochrome P450 2D6 = Cytochrome P450 2D6 (Homo sapiens, UniProt P10635);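 further: CYP2D6 member of a cytochrome P450 panel assay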
Cytochrome P450 2C19 = Cytochrome P450 2C19 (Homo sapiens, UniProt P33261); test: Cytochrome panel assay with activity outcomes. Panel member name: p450-cyp2c19 Compounds with AC50 equal or less than 10 uM are considered active; type: functional; details: read-out: AC50
Chain of Cytochrome P450 2C19 (P33261 whole entry): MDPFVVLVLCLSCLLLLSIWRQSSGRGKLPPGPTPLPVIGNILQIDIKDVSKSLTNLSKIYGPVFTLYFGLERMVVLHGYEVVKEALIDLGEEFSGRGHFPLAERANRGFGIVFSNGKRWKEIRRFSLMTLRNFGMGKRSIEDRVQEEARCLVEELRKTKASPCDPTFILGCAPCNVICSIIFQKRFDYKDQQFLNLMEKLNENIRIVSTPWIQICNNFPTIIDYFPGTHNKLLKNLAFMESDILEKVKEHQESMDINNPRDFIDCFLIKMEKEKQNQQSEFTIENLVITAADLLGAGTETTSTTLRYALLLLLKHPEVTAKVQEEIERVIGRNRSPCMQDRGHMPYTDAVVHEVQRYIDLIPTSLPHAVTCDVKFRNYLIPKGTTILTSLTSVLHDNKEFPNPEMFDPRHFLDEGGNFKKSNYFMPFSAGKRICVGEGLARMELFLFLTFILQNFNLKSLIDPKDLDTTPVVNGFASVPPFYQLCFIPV

Cytochrome P450 2C9 = Cytochrome P450 2C9 (Homo sapiens, UniProt P11712)
Chain of Cytochrome P450 2C9 (P11712 whole entry): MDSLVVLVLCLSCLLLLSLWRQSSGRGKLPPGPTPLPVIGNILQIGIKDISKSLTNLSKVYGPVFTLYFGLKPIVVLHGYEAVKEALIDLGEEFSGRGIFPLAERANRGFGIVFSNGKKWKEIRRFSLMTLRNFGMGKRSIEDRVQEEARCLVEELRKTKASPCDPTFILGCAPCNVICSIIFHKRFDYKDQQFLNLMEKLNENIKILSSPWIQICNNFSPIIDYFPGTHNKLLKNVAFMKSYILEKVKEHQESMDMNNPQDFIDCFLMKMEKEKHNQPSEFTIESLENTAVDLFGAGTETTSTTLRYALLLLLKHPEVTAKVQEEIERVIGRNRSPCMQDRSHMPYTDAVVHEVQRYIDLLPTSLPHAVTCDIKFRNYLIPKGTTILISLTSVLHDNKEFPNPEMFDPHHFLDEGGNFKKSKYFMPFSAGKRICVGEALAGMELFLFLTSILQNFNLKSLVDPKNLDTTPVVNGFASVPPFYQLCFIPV

[3] = Luminescence Cell-Based Dose Response HTS to Identify Activators of Luciferase Translation or Activity in H4 […] Cells. [Related pubchem assays: 1829 (Project Summary), 1814 (Primary HTS)]; type: functional
Cytochrome P450 1A2 = biological target: T1, Cytochrome P450 1A2 (Homo sapiens, UniProt P05177);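 further: PubChem cytochrome P450 panel assay, CYP1A2 panel member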
T1 sequence (P05177 whole entry): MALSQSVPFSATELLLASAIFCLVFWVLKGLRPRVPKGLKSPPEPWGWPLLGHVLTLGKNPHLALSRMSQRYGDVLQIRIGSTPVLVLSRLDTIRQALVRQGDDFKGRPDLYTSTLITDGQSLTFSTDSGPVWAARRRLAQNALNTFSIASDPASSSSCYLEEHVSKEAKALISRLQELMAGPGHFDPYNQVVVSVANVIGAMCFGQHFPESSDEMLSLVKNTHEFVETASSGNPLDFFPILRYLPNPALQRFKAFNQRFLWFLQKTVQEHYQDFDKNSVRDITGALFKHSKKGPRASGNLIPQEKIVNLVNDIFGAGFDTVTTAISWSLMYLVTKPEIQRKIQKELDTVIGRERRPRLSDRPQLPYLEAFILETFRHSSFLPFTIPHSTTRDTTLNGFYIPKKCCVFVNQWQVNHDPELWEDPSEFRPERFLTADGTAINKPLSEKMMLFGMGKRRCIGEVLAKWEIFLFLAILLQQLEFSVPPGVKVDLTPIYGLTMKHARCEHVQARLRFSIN

Cytochrome P450 3A4 = Cytochrome P450 3A4 (Homo sapiens, UniProt P08684);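 further: CYP3A4 tested as one member of a cytochrome P450 panel screen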
Chain of Cytochrome P450 3A4 (P08684 whole entry): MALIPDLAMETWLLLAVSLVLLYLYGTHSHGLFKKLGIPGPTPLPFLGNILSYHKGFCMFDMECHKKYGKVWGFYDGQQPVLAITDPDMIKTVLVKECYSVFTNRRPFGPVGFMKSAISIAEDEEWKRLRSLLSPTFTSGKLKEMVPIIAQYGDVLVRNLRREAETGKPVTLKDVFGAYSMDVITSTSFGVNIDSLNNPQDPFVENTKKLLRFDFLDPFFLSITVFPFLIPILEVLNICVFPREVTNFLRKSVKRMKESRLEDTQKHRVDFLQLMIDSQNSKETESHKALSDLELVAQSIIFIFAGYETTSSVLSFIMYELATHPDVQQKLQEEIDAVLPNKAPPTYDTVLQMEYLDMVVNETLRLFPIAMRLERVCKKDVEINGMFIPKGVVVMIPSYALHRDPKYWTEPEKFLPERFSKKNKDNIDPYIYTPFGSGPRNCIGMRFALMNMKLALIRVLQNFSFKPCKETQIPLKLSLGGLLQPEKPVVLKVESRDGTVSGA

[4] = HEp-2 cell cytotoxicity, dose response, cytotoxicity control for RSV inhibitor project, HTS (AID 2410); type: functional; details: human respiratory syncytial virus
[5] = growth suppression of PTEN-null colon cells, dose response, cell-based, HCT116 PTEN knockout (AID 1047); type: functional;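 further: HCT116 colon tumor cells with PTEN knocked out; cells exposed to compound for 60 hours before readout; potency for loss of cell viability measured by luminescence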

Chain of Cytochrome P450 2D6 (P10635 whole entry): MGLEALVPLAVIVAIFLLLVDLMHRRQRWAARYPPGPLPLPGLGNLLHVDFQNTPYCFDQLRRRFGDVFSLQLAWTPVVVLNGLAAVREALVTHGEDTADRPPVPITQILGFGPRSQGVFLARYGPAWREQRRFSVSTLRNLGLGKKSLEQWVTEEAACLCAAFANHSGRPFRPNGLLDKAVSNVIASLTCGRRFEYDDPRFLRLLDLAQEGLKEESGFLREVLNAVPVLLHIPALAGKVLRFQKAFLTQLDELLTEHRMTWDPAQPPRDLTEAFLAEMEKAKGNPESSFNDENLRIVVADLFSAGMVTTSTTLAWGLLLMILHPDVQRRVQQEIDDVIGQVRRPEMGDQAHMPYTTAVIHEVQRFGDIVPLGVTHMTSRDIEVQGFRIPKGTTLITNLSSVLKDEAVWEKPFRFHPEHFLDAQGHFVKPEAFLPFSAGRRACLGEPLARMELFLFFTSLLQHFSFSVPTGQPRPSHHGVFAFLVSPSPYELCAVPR

Q: With `Cc1ccc(-c2csc3nc(SCC(=O)N(C)C)n(Cc4ccccc4)c(=O)c23)cc1` as the compound, how does the EC50 (cells [1]) read?
A: > 350 µM (not active)

Q: What about the EC50 (cells [2]) of the same compound?
A: > 350 µM (not active)

Q: With `NCCSCCc1ccccc1` as the compound, how does the AC50 (Cytochrome P450 2D6) read?
A: 3.16 µM (inconclusive)

Q: And the AC50 (Cytochrome P450 2C19)?
A: 3.16 µM (inconclusive)

Q: For `COc1ccc(CC(NC(C)=O)C(=O)NC2CCN(C(=O)Nc3ccc(Cl)cc3)CC2)cc1OC` (configuration not stated), which EC50 (cells [1]) is on record?
A: > 350 µM (not active)

Q: And the AC50 (Cytochrome P450 2C9)?
A: 12.6 µM (inconclusive)

Q: What about the EC50 (cells [2]) of the same compound?
A: > 350 µM (not active)

Q: Which results are given for `CCc1ccc(-c2ccc(C(=O)C(F)(F)F)[nH]2)cc1`?
A: AC50 (Cytochrome P450 2C19): 5.01 µM (inconclusive); EC50 [3]: 0.19 µM (active)

Q: Which AC50 (Cytochrome P450 2D6) does the source give for `COc1cc2c(cc1OC)-c1c/c(=N/c3c(C)cc(C)cc3C)n(C)c(=O)n1CC2` here?
A: 31.6 µM (inconclusive)

Q: What about the AC50 (Cytochrome P450 2C19) of the same compound?
A: 31.6 µM (inconclusive)

Q: With `COc1cccc(Cn2c(=O)c(-c3ccccc3)nc3cnc(N4CCNCC4)nc32)c1` as the compound, how does the AC50 (Cytochrome P450 2D6) read?
A: 10 µM (inconclusive)

Q: And the AC50 (Cytochrome P450 2C19)?
A: 39.8 µM (inconclusive)

Q: What about the AC50 (Cytochrome P450 1A2) of the same compound?
A: 3.16 µM (inconclusive)

Q: With `COc1ccc(C(=O)Nc2ccc(C(=O)NCCc3ccc(OC)c(OC)c3)cc2)cc1` as the compound, how does the EC50 (cells [1]) read?
A: > 350 µM (not active)

Q: What about the EC50 (cells [2]) of the same compound?
A: > 350 µM (not active)

Q: For `Cc1ccc(C(=O)C2C(=O)c3ccccc3C2=O)cc1`, which AC50 (Cytochrome P450 2C19) is on record?
A: 22.4 µM (inconclusive)

Q: What about the AC50 (Cytochrome P450 1A2) of the same compound?
A: 25.1 µM (inconclusive)

Q: Which AC50 (Cytochrome P450 2D6) does the source give for `CS(=O)(=O)Nc1cccc(-c2cc(NCc3ccccc3)ncn2)c1` here?
A: 31.6 µM (inconclusive)

Q: What about the AC50 (Cytochrome P450 2C19) of the same compound?
A: 39.8 µM (inconclusive)

Q: Which results are given for `CN1C(=O)C(=C(N)COc2ccccc2)C(=O)N(C)C1=O`?
A: AC50 (Cytochrome P450 2C19): 15.8 µM (inconclusive); AC50 (Cytochrome P450 2C9): 14.1 µM (inconclusive)

Q: Which EC50 (cells [1]) does the source give for `CCN(CCN(C)C)C(=O)C1CCN(S(=O)(=O)c2c(C)noc2/C=C/c2ccccc2F)CC1` here?
A: 21.2 µM (active)

Q: What about the EC50 (cells [2]) of the same compound?
A: > 350 µM (not active)

Q: Which AC50 (Cytochrome P450 2C19) does the source give for `c1ccc(-c2csc3ncn4cnnc4c23)cc1` here?
A: 11.2 µM (inconclusive)

Q: What about the AC50 (Cytochrome P450 1A2) of the same compound?
A: 0.251 µM (inconclusive)

Q: What about the AC50 (Cytochrome P450 2C9) of the same compound?
A: 20 µM (inconclusive)

Q: With `Cc1ccc(-n2c(SCC(=O)N3CCOCC3)nnc2-c2cccnc2)cc1` as the compound, how does the AC50 (Cytochrome P450 2C19) read?
A: 22.4 µM (inconclusive)

Q: What about the AC50 (Cytochrome P450 3A4) of the same compound?
A: 10 µM (inconclusive)

Q: And the AC50 (Cytochrome P450 1A2)?
A: 10 µM (inconclusive)

Q: What about the AC50 (Cytochrome P450 2C9) of the same compound?
A: 17.8 µM (inconclusive)

Q: Which AC50 (Cytochrome P450 2C19) does the source give for `Cn1c(=O)c(CCc2ccccc2)nc2cncnc21` here?
A: 39.8 µM (inconclusive)

Q: And the AC50 (Cytochrome P450 3A4)?
A: 15.8 µM (inconclusive)

Q: And the AC50 (Cytochrome P450 2C9)?
A: 31.6 µM (inconclusive)

Q: Which CC50 [4] does the source give for `CCN(CC)C(=O)CCCOc1ccc(Cl)cc1Cl` here?
A: 22.1 µM (active)

Q: What about the EC50 [5] of the same compound?
A: 137 µM (active)

Q: Which results are given for `COc1cccc(C2=NOC(C(=O)NCc3ccccn3)C2)c1` (configuration not stated)?
A: AC50 (Cytochrome P450 2C19): 25.1 µM (inconclusive); AC50 (Cytochrome P450 3A4): 15.8 µM (inconclusive)

Q: For `Cc1ccc(Oc2nc(-c3ccccc3)ncc2S(C)(=O)=O)cc1`, which AC50 (Cytochrome P450 2C19) is on record?
A: 3.16 µM (inconclusive)

Q: And the AC50 (Cytochrome P450 3A4)?
A: 14.1 µM (inconclusive)

Q: For `CCOc1cc(/C=N/NC(=O)c2cccnc2)ccc1OCc1ccc(C(=O)OC)o1`, which EC50 (cells [1]) is on record?
A: > 350 µM (not active)

Q: And the EC50 (cells [2])?
A: > 350 µM (not active)
